In ChEMBL document CHEMBL1201862, “PubChem BioAssay data set” (2004):
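Briefly, cells in 96-well plates were exposed to five compound concentrations for 48 h, and endpoints were estimated by linear interpolation. GI50 = concentration required for 50% inhibition of growth.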 Calls of active or inactive are those of the source. Rule as the data show it: active = GI50 up to about 1.1 µM and inactive = higher.

Columns and labels:
Experiment in all cases: DTP human tumour cell line panel, 48 h
786-0 = system: 786-0
NCI/ADR-RES = system: NCI/ADR-RES
CAKI-1 = system: CAKI-1
K562 = system: K562
Malme-3M = system: Malme-3M
MCF7 = system: MCF7
A498 = system: A498
CCRF-CEM = system: CCRF-CEM
UACC-62 = system: UACC-62
MOLT-4 = system: MOLT-4
EKVX = system: EKVX
T47D = system: T47D
HOP-62 = system: HOP-62
HCT-15 = system: HCT-15
HCC 2998 = system: HCC 2998
MDA-MB-231 = system: MDA-MB-231
SK-MEL-5 = system: SK-MEL-5
NCI-H522 = system: NCI-H522
SNB-75 = system: SNB-75
SW-620 = system: SW-620
SN12C = system: SN12C
TK-10 = system: TK-10
RXF 393 = system: RXF 393
SR = system: SR
NCI-H23 = system: NCI-H23
OVCAR-4 = system: OVCAR-4
HOP-92 = system: HOP-92
SK-OV-3 = system: SK-OV-3
HCT-116 = system: HCT-116
RPMI-8226 = system: RPMI-8226
NCI-H460 = system: NCI-H460
COLO 205 = system: COLO 205
Hs-578T = system: Hs-578T
MDA-N = system: MDA-N
DU-145 = system: DU-145
BT-549 = system: BT-549
UO-31 = system: UO-31
MDA-MB-435 = system: MDA-MB-435
SF-295 = system: SF-295
PC-3 = system: PC-3
UACC-257 = system: UACC-257
M14 = system: M14
OVCAR-3 = system: OVCAR-3
OVCAR-8 = system: OVCAR-8
ACHN = system: ACHN
SNB-19 = system: SNB-19
A549 = system: A549
U-251 = system: U-251
HT-29 = system: HT-29
KM12 = system: KM12
LOX IMVI = system: LOX IMVI
SK-MEL-28 = system: SK-MEL-28
IGROV-1 = system: IGROV-1
SK-MEL-2 = system: SK-MEL-2
NCI-H226 = system: NCI-H226
HL-60 = system: HL-60
SF-539 = system: SF-539
OVCAR-5 = system: OVCAR-5
SF-268 = system: SF-268
KM-20L2 = system: KM-20L2
M19-MEL = system: M19-MEL
DLD-1 = system: DLD-1

## COc1cc2c(cc1O)CC1c3c(cc(O)c(OC)c3-2)CCN1C (centres undefined)
786-0
  GI50: > 100 µM (inactive)
NCI/ADR-RES
  GI50: > 100 µM (inactive)
CAKI-1
  GI50: > 100 µM (inactive)
K562
  GI50: > 100 µM (inactive)
Malme-3M
  GI50: > 100 µM (inactive)
MCF7
  GI50: > 100 µM (inactive)
A498
  GI50: > 100 µM (inactive)
CCRF-CEM
  GI50: > 100 µM (inactive)
UACC-62
  GI50: > 100 µM (inactive)
MOLT-4
  GI50: > 58.3 µM (inactive)
EKVX
  GI50: > 100 µM (inactive)
T47D
  GI50: > 100 µM (inactive)
HOP-62
  GI50: > 100 µM (inactive)
HCT-15
  GI50: > 100 µM
HCC 2998
  GI50: > 100 µM (inactive)
MDA-MB-231
  GI50: > 100 µM (inactive)
SK-MEL-5
  GI50: > 89.7 µM (inactive)
NCI-H522
  GI50: 56.4 µM (inactive)
SNB-75
  GI50: 81.1 µM (inactive)
SW-620
  GI50: > 100 µM (inactive)
SN12C
  GI50: > 100 µM (inactive)
TK-10
  GI50: > 100 µM (inactive)
RXF 393
  GI50: > 100 µM (inactive)
SR
  GI50: > 59.7 µM (inactive)
NCI-H23
  GI50: > 100 µM (inactive)
OVCAR-4
  GI50: > 100 µM (inactive)
HOP-92
  GI50: > 78.3 µM (inactive)
SK-OV-3
  GI50: > 100 µM (inactive)
HCT-116
  GI50: > 78 µM (inactive)
RPMI-8226
  GI50: > 100 µM (inactive)
NCI-H460
  GI50: > 100 µM (inactive)
COLO 205
  GI50: > 73.5 µM (inactive)
Hs-578T
  GI50: > 100 µM (inactive)
MDA-N
  GI50: > 100 µM (inactive)
DU-145
  GI50: > 100 µM (inactive)
BT-549
  GI50: > 100 µM (inactive)
UO-31
  GI50: > 100 µM (inactive)
MDA-MB-435
  GI50: > 100 µM (inactive)
SF-295
  GI50: > 100 µM (inactive)
PC-3
  GI50: > 96.6 µM (inactive)
UACC-257
  GI50: > 100 µM (inactive)
M14
  GI50: > 100 µM (inactive)
OVCAR-3
  GI50: 98.9 µM (inactive)
OVCAR-8
  GI50: > 100 µM (inactive)
ACHN
  GI50: > 100 µM (inactive)
SNB-19
  GI50: > 100 µM (inactive)
A549
  GI50: > 100 µM (inactive)
U-251
  GI50: > 86.1 µM (inactive)
HT-29
  GI50: 62.2 µM (inactive)
KM12
  GI50: > 100 µM (inactive)
LOX IMVI
  GI50: > 100 µM (inactive)
SK-MEL-28
  GI50: > 100 µM (inactive)
IGROV-1
  GI50: > 100 µM (inactive)
SK-MEL-2
  GI50: > 100 µM (inactive)
NCI-H226
  GI50: 69.7 µM (inactive)
HL-60
  GI50: 91.4 µM (inactive)
SF-539
  GI50: > 39.9 µM (inactive)
OVCAR-5
  GI50: > 100 µM (inactive)
SF-268
  GI50: > 100 µM (inactive)

## C/C(=N\NC(=O)c1cccnc1)c1cccc(/C(C)=N/NC(=O)c2cccnc2)n1
UACC-62
  GI50: 2.04 µM (inactive)
EKVX
  GI50: 3.42 µM (inactive)
HCT-15
  GI50: 3.99 µM
KM-20L2
  GI50: 2.21 µM (inactive)
SW-620
  GI50: 2.78 µM (inactive)
SN12C
  GI50: 4.81 µM (inactive)
TK-10
  GI50: 4.67 µM (inactive)
M19-MEL
  GI50: 13.2 µM (inactive)
NCI-H23
  GI50: 7.4 µM (inactive)
SK-OV-3
  GI50: 4.14 µM (inactive)
NCI-H460
  GI50: 3.41 µM (inactive)
DLD-1
  GI50: 1.95 µM (inactive)
UO-31
  GI50: 3.81 µM (inactive)
SF-295
  GI50: 4.15 µM (inactive)
UACC-257
  GI50: 3.06 µM (inactive)
M14
  GI50: 2.85 µM (inactive)
OVCAR-8
  GI50: 2.43 µM (inactive)
ACHN
  GI50: 1.48 µM (inactive)
SNB-19
  GI50: 3.56 µM (inactive)
A549
  GI50: 2.99 µM (inactive)
U-251
  GI50: 2.06 µM (inactive)
KM12
  GI50: 4.85 µM (inactive)
LOX IMVI
  GI50: 2 µM (inactive)
SF-539
  GI50: 2.36 µM (inactive)
OVCAR-5
  GI50: 2.08 µM (inactive)
SF-268
  GI50: 0.867 µM (active)

## O=C1N=NC(=O)N1c1cc(C(F)(F)F)cc(C(F)(F)F)c1
786-0
  GI50: 4.68 µM (inactive)
NCI/ADR-RES
  GI50: 2.97 µM (inactive)
CAKI-1
  GI50: 2.94 µM (inactive)
K562
  GI50: 3.37 µM (inactive)
Malme-3M
  GI50: 3.83 µM (inactive)
MCF7
  GI50: 3.35 µM (inactive)
A498
  GI50: 5.4 µM (inactive)
CCRF-CEM
  GI50: 3.69 µM (inactive)
UACC-62
  GI50: 5.65 µM (inactive)
MOLT-4
  GI50: 3.37 µM (inactive)
EKVX
  GI50: 3.24 µM (inactive)
T47D
  GI50: 3.61 µM (inactive)
HOP-62
  GI50: 4.17 µM (inactive)
HCT-15
  GI50: 3.2 µM
HCC 2998
  GI50: 3.45 µM (inactive)
MDA-MB-231
  GI50: 2.38 µM (inactive)
SK-MEL-5
  GI50: 2.61 µM (inactive)
NCI-H522
  GI50: 2.07 µM (inactive)
SNB-75
  GI50: 2.95 µM (inactive)
SW-620
  GI50: 5.46 µM (inactive)
SN12C
  GI50: 3.75 µM (inactive)
TK-10
  GI50: 3.68 µM (inactive)
RXF 393
  GI50: 3.29 µM (inactive)
SR
  GI50: 4.69 µM (inactive)
NCI-H23
  GI50: 2.35 µM (inactive)
OVCAR-4
  GI50: 4.21 µM (inactive)
HOP-92
  GI50: 2.75 µM (inactive)
SK-OV-3
  GI50: 3.81 µM (inactive)
HCT-116
  GI50: 3.24 µM (inactive)
RPMI-8226
  GI50: 2.89 µM (inactive)
NCI-H460
  GI50: 3.23 µM (inactive)
COLO 205
  GI50: 1.85 µM (inactive)
Hs-578T
  GI50: 3.93 µM (inactive)
MDA-N
  GI50: 4.17 µM (inactive)
DU-145
  GI50: 5.28 µM (inactive)
BT-549
  GI50: 3.61 µM (inactive)
UO-31
  GI50: 2.44 µM (inactive)
MDA-MB-435
  GI50: 4.38 µM (inactive)
SF-295
  GI50: 2.78 µM (inactive)
PC-3
  GI50: 2.65 µM (inactive)
UACC-257
  GI50: 3.16 µM (inactive)
M14
  GI50: 5.7 µM (inactive)
OVCAR-3
  GI50: 2.44 µM (inactive)
OVCAR-8
  GI50: 3.38 µM (inactive)
ACHN
  GI50: 4.04 µM (inactive)
SNB-19
  GI50: 4.03 µM (inactive)
A549
  GI50: 2.93 µM (inactive)
U-251
  GI50: 3.12 µM (inactive)
HT-29
  GI50: 2.73 µM (inactive)
KM12
  GI50: 3.93 µM (inactive)
LOX IMVI
  GI50: 3.27 µM (inactive)
SK-MEL-28
  GI50: 10.6 µM (inactive)
IGROV-1
  GI50: 3.83 µM (inactive)
SK-MEL-2
  GI50: 2.2 µM (inactive)
NCI-H226
  GI50: 2.55 µM (inactive)
HL-60
  GI50: 3.61 µM (inactive)
SF-539
  GI50: 4.86 µM (inactive)
OVCAR-5
  GI50: 4.09 µM (inactive)
SF-268
  GI50: 3.7 µM (inactive)
